Measurements reported in patent US5026726A, “Gossylic iminolactones and gossylic lactones and their anti-viral activities” (The University of New Mexico, priority 1989, dated 1991).

Legend:
[1] = tested on: reverse transcriptase (RT); details: literature; cited from earlier work
[2] = literature; cited from earlier work
HIV virus = details: after prolonged exposure, literature; cited from earlier work
[3] = tested on: HIV-1 virus (HIV-infected MT4 cells); experiment: Anti-HIV-1 activity in infected MT4 cells (% IFA positive cells, 6 days); format: cell-based, human immunodeficiency virus (HIV-1), LAV-A isolate
Procedure: (§1) The above % IFA positive cells were determined 6 days after addition of HIV-1 virus. Cell viability is % viable cells relative to mock-treated cells or controls. FIGS. 1-A through D show one of many representative set of data.
An LAV-A isolate of human immunodeficiency virus (HIV-1) was used in this study. LAV-A was originally isolated by Dr. L. Montagnier, Pasteur Institute, Paris, and was obtained from Dr. T. Folks, NIAID.
MT4 cells, 10^7 cells/ml, were infected for 1 hour at 4° C., with stock HIV-1 virus, 0.5 ml stock/10^7 cells.
(§2) The infected cells were then resuspended in a complete medium (RPMI 1640 with 20% FBS, L-glutamine, 2 mM, penicillin, 100 units/ml, and streptomycin, 100 ug/ml). Aliquots were added to 24-well tissue culture plates containing varying concentrations of Compounds I, II, III and IV in complete media. The final cell concentration was 1.5×10^5 cells/ml.
(§3) Positive control wells received no drug. Negative control wells received mock-treated MT4 cells. Cells were incubated at 37° C. in 5% CO2. Media was changed after 3 days with fresh complete media containing the appropriate drug.
The percent HIV-1 viral infection was determined by an immunofluorescence assay (IFA) using heat-inactivated, pooled human anti-sera from HIV-positive patients as the first antibody and goat anti-human IgG conjugated with FITC as the second antibody. This is a standard immunoassay known in the art.
Slides were counterstained with Evans blue to obtain total cell counts from the same slides as is known in the art. Uninfected cells were consistently negative for fluorescence.

MT4 cells = experiment: Cytotoxicity to MT4 cells (trypan blue exclusion); format: cell-based; details: for toxicity to the host cell: MT4 cells
Procedure: as §1, §2, §3
(§4) After 6 days, the viability of the MT4 cells, control or infected, was determined by trypan blue exclusion, which is a standard procedure to determine cell viability.

[4] = tested on: billirubin binding site of the protein albumin; details: literature; cited from earlier work
parainfluenza type 3 = details: literature; cited from earlier work
herpes simplex viruses = details: literature; cited from earlier work
Trypanosoma cruzi = details: literature; cited from earlier work
Plasmodium falcicarum = details: literature; cited from earlier work
[5] = tested on: herpes simplex virus type II; details: literature; cited from earlier work
[6] = Cytotoxicity to MT4 cells (trypan blue exclusion); format: cell-based; details: human, mt4 cells; for MCC at 144 h: read-out: concentration at which toxicity to the host cell was shown
Procedure: as §1, §2, §3, §4

Cc1cn([C@H]2C[C@H](N=[N+]=[N-])[C@@H](CO)O2)c(=O)[nH]c1=O [AZT, 3'-azido-2',3'-dideoxythymidine]
inhibition of reverse transcriptase [1]: inhibitor of the enzyme reverse transcriptase
toxicity limiting use in HIV-infected patients [2]: hematologic toxicity limits, and in some cases precludes, the use
development of HIV resistance (HIV virus): may develop resistance

Cc1cc2c(C(C)C)c(O)c(O)c(C=O)c2c(O)c1-c1c(C)cc2c(C(C)C)c(O)c(O)c(C=O)c2c1O [Compound I, gossypol]
inhibition of virus replication ([3]; 1 uM, 6 days): approximately 50%
toxicity to the host cell (MT4 cells; 1 uM): significant toxicity to the host cell
binding to the bilirubin binding site of albumin [4]: bind tightly
antiviral properties: inactivation of parainfluenza type 3 (parainfluenza type 3): capable of inactivating
antiviral properties: inactivation of herpes simplex viruses (herpes simplex viruses): capable of inactivating
growth of Trypanosoma cruzi (Trypanosoma cruzi): inhibited
growth of Plasmodium falcicarum (Plasmodium falcicarum): inhibited
antiviral activity against herpes simplex virus type II [5]: exhibit antiviral activities

CC(=O)Oc1c(-c2c(C)cc3c(C(C)C)c(O)c(O)c(C#N)c3c2OC(C)=O)c(C)cc2c(C(C)C)c(O)c(O)c(C#N)c12 [Compound II, Gossylic nitrile-1,1'-diacetate]
inhibition at 50 µM ([3]; Human immunodeficiency virus 1, 144 h, 50 uM, 6 days, read-out: inhibition of virus replication): ~50%
MCC at 144 h [6]: 250 µM

Cc1cc2c(C(C)C)c(O)c(O)c3c2c(c1-c1c(C)cc2c(C(C)C)c(O)c(O)c4c2c1OC4=N)OC3=N [Compound III, gossylic iminolactone]
inhibition at 1 µM ([3]; Human immunodeficiency virus 1, 144 h, 1 uM, 6 days, read-out: inhibition of virus replication): ~50%
EC50 ([3]; Human immunodeficiency virus 1, 144 h, read-out: ED50 (the source's name)): 1 µM
CC50 at 144 h [6]: 25 to 50 µM
MCC at 144 h [6]: 50 µM
toxicity to the host cell (MT4 cells; until the drug concentration reached 50 uM): no toxicity to the host cell

Cc1cc2c(C(C)C)c(O)c(O)c3c2c(c1-c1c(C)cc2c(C(C)C)c(O)c(O)c4c2c1OC4=O)OC3=O [Compound IV, gossylic lactone]
antiviral activity ([3]; below 250 uM): very little antiviral activity
toxicity to the MT4 cell (MT4 cells; 250 uM): pronounced toxicity
